Assay results as given in patent US7851599B2 (Philogen S.p.A., priority 2006, dated 2010).

Legend:
[1] = tested on: human pancreatic cancer cell line DanG; test: Orthotopic DanG pancreatic cancer xenograft, tumor volume; assay type: in vivo, nude mice
[2] = molecular target: ED-B domain of fibronectin (Homo sapiens, UniProt P02751); settings: cited from earlier work
Chain of ED-B domain of fibronectin (P02751 1271-1359 limits assumed): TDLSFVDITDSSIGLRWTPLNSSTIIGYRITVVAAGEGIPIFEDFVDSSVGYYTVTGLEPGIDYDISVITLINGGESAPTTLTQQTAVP

Compound | mice with complete remission ([1]; gemcitabine 250 mg/kg BW days 7, 14, L19IL2 4.29 MIU/kg BW days 8-12, 15-19, or both) | pancreatic tumor volume, % compared to control mice ([1]; gemcitabine i.p. 250 mg/kg BW once weekly (day 7 and 14), day 21) | binding affinity for ED-B [2]
Nc1ccn([C@@H]2O[C@H](CO)[C@@H](O)C2(F)F)c(=O)n1 [gemcitabine, 2′-deoxy-2′,2′-difluorocytidine] | no complete remission | 28% | –
scFv L19: human homodimeric single chain Fv antibody fragment L19 specific for the ED-B domain of fibronectin | – | – | picomolar
